From ChEMBL document CHEMBL1201862, “PubChem BioAssay data set” (2004)
The source made the active and inactive calls.

How the values were obtained:
Fatty acid synthase [1] = biological target: T1, Fatty acid synthase (Homo sapiens, UniProt P49327); assay: FAS thioesterase domain inhibitors, dose response, biochemical, endpoint fluorescence intensity, uHTS hits (AID 624327); format: functional;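 also: fluorescence from hydrolysis of an O-methyl fluorescein acyl ester substrate by the enzyme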
Fatty acid synthase [2] = biological target: T1, Fatty acid synthase; assay: FAS thioesterase domain inhibitors, dose response, biochemical, kinetic fluorescence intensity (AID 624326); format: functional;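 also: rate of fluorescence rise from hydrolysis of a fluorogenic O-methyl fluorescein ester substrate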
Beta-galactosidase = Beta-galactosidase (Escherichia coli, UniProt Q8VNN2); assay: Dose response counterscreen for EBI2 assay utilizing the enzyme, b-galactosidase.; format: functional
[3] = biological target: Luciferin 4-monooxygenase (Photinus pyralis, UniProt P08659); assay: firefly luciferase enzyme inhibitors, dose response, biochemical, luminescence (AID 1891)
[4] = Luminescence Cell-Based Dose Confirmation HTS to Identify Inhibitors of Platelet Dense Granule Release. [Related pubchem assays: 1663 (Primary HTS), 1678 (Summary of Project)]; format: functional
CAAX prenyl protease 2 = biological target: T2, CAAX prenyl protease 2 (Saccharomyces cerevisiae S288c, UniProt Q03530); format: biochemical
T2 sequence (Q03530 whole entry): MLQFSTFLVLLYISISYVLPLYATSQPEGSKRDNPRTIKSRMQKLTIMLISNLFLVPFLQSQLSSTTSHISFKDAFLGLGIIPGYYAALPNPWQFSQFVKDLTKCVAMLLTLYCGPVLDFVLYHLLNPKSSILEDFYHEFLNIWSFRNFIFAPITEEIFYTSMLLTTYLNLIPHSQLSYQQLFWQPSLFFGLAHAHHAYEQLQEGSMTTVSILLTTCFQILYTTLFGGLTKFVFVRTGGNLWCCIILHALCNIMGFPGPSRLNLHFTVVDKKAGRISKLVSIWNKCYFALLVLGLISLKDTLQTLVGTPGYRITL

Caspase-3 = biological target: T3, Caspase-3 (Homo sapiens, UniProt P42574); format: functional;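 also: Dose-response selectivity test against caspase-3 for candidate inhibitors of sentrin-specific proteases (SENPs)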
T3 sequence (P42574 whole entry): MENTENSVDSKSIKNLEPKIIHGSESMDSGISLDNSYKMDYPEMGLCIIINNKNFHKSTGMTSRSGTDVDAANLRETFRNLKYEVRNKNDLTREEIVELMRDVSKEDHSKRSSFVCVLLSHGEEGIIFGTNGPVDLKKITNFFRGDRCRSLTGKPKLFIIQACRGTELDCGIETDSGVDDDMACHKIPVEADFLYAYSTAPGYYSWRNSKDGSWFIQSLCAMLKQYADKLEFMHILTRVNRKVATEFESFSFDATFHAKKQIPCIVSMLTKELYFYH

[5] = biological target: T4, Sentrin-specific protease 7 (Homo sapiens, UniProt Q9BQF6); format: functional;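 also: Luminescence-based dose-response confirmation of ultra-high-throughput screening hits, measuring inhibition of SENP7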
T4 sequence (Q9BQF6 whole entry): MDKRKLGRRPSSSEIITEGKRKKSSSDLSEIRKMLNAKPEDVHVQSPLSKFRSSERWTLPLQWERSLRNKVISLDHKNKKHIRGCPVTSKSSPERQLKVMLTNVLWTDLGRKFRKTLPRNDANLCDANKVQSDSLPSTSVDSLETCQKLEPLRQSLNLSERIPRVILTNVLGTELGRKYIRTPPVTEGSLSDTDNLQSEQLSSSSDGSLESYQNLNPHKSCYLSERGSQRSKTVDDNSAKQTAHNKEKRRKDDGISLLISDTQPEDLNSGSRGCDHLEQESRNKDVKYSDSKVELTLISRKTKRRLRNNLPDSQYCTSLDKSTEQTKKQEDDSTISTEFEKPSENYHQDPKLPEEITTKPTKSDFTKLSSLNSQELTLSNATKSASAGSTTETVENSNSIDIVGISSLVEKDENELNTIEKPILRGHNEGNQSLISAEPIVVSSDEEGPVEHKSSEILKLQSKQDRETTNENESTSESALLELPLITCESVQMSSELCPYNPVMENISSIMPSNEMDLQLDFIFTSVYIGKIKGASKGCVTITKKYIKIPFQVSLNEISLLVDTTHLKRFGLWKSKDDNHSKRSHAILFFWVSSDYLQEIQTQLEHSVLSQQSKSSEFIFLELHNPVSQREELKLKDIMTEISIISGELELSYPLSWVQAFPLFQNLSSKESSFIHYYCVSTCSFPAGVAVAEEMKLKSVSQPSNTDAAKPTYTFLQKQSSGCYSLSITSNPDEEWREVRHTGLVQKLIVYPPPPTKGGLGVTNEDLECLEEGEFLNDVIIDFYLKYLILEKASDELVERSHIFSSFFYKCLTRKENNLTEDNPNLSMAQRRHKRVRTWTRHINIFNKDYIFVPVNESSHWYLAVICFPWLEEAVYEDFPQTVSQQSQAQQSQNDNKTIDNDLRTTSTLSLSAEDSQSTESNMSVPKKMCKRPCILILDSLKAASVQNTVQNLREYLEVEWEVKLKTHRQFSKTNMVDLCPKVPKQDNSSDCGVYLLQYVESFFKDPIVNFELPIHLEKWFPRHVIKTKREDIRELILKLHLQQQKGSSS

[6] = biological target: T5, Sentrin-specific protease 6 (Homo sapiens, UniProt Q9GZR1); format: functional;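 also: Luminescence-based dose-response confirmatory assay of SENP6 inhibition, following up an ultra-high-throughput screen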
T5 sequence (Q9GZR1 whole entry): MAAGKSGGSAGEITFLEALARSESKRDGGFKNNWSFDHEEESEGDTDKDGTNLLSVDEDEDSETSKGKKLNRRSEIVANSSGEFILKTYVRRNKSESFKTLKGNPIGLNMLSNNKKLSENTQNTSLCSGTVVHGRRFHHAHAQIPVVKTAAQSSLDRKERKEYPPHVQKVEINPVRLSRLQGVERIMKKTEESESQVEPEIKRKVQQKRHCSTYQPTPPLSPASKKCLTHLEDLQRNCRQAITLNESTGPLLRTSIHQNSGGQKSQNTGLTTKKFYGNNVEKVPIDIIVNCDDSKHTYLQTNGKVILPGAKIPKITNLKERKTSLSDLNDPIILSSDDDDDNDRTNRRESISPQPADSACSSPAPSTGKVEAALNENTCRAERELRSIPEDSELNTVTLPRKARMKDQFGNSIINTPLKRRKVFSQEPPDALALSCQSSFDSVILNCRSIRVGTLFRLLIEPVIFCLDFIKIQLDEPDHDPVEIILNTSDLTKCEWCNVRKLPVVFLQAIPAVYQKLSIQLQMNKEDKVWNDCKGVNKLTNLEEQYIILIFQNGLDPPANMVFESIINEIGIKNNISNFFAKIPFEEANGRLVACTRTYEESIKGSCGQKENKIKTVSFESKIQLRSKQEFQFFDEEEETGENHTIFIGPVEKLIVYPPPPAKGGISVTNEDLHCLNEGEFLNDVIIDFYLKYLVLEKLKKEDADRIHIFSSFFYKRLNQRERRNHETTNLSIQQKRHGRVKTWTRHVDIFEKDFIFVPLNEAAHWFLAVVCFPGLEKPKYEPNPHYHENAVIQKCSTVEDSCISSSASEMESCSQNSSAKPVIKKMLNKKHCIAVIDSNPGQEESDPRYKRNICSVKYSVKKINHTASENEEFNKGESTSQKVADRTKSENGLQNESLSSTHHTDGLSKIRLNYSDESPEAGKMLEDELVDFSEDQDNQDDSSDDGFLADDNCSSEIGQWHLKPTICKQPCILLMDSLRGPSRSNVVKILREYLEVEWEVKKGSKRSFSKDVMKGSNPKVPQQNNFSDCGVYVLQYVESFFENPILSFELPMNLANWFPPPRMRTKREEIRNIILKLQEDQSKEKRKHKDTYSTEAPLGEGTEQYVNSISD

[7] = biological target: T6, Sentrin-specific protease 8 (Homo sapiens, UniProt Q96LD8); format: functional;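 also: luminescence read-out of SENP8 inhibition, dose-response confirmation following an ultra-high-throughput screen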
T6 sequence (Q96LD8 whole entry): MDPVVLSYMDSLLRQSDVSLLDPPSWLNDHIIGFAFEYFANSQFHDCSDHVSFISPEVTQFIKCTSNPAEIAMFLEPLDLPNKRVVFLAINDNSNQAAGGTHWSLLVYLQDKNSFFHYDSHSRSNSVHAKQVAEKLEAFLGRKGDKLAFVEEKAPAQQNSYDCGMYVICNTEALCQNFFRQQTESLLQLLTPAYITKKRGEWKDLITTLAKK

[8] = HepG2 cell cytotoxicity, dose response, cytotoxicity control, plate reader, cherry-pick, antagonist series (AID 743416); format: functional, cell-based
cells = format: functional
[9] = biological target: T7, Heat shock factor protein 1 (Mus musculus, UniProt P38532); assay: inhibition of MG132-induced HSE-luciferase signal, confirmation, cell-based, NIH3T3, luminescence, dose retest (AID 2382); format: functional;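 also: NIH3T3 fibroblasts with HSF1-driven luciferase reporter stressed by proteasome inhibitor MG132; luminescence from HSF1-driven luciferase expression after 8 hours of MG132 stress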
T7 sequence (P38532 whole entry): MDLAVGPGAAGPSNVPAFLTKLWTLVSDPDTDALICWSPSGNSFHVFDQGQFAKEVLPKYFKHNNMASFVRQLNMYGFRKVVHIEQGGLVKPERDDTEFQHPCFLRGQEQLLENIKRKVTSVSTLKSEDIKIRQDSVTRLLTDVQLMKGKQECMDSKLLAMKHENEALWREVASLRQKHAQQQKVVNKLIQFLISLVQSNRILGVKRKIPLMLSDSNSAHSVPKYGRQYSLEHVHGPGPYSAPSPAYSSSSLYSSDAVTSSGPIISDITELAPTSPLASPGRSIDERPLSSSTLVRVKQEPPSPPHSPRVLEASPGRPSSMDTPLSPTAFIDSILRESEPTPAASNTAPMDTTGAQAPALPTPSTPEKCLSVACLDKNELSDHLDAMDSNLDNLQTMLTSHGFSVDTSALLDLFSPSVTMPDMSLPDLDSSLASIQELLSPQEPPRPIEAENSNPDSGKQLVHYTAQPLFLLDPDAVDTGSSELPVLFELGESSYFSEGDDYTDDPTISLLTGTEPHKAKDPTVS

HEK293 = assay: inhibitors of LMP1-driven NF-kB reporter, dose response, cell-based, HEK293, luciferase, cherry-pick (AID 588343); format: functional; details: Homo sapiens
Protein skinhead-1 = biological target: T8, Protein skinhead-1 (Caenorhabditis elegans, UniProt P34707); format: functional
T8 sequence (P34707 whole entry): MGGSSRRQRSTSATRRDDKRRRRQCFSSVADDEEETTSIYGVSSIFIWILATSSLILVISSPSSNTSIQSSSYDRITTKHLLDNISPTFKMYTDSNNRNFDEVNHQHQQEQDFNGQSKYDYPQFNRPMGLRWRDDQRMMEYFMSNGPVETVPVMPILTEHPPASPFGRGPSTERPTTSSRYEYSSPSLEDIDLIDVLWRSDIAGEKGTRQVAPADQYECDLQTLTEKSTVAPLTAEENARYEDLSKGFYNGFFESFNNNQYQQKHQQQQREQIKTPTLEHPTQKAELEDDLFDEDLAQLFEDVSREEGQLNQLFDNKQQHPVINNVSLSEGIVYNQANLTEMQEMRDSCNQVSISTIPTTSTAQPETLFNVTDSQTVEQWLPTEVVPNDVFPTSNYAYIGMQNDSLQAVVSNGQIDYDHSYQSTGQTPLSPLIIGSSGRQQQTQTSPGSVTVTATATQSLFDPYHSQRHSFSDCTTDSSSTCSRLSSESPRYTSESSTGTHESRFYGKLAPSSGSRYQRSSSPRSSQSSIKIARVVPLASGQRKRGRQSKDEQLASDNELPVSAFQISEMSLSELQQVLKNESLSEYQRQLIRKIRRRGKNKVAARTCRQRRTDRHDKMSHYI

Sequence of Luciferin 4-monooxygenase (P08659 whole entry): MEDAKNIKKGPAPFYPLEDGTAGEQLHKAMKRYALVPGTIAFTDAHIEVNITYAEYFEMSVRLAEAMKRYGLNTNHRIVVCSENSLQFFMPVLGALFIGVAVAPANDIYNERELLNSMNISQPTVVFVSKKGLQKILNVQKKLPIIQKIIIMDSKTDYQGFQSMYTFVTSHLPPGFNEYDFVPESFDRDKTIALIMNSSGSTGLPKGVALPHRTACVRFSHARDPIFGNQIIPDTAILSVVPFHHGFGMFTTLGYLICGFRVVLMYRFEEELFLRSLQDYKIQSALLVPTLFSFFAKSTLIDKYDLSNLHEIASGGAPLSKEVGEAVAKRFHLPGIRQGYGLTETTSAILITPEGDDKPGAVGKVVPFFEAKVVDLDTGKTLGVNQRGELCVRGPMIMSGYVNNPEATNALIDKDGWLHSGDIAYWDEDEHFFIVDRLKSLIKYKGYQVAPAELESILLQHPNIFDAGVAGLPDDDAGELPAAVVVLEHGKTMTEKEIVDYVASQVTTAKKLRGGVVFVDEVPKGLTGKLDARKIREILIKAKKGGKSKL
Sequence of Beta-galactosidase (Q8VNN2 whole entry): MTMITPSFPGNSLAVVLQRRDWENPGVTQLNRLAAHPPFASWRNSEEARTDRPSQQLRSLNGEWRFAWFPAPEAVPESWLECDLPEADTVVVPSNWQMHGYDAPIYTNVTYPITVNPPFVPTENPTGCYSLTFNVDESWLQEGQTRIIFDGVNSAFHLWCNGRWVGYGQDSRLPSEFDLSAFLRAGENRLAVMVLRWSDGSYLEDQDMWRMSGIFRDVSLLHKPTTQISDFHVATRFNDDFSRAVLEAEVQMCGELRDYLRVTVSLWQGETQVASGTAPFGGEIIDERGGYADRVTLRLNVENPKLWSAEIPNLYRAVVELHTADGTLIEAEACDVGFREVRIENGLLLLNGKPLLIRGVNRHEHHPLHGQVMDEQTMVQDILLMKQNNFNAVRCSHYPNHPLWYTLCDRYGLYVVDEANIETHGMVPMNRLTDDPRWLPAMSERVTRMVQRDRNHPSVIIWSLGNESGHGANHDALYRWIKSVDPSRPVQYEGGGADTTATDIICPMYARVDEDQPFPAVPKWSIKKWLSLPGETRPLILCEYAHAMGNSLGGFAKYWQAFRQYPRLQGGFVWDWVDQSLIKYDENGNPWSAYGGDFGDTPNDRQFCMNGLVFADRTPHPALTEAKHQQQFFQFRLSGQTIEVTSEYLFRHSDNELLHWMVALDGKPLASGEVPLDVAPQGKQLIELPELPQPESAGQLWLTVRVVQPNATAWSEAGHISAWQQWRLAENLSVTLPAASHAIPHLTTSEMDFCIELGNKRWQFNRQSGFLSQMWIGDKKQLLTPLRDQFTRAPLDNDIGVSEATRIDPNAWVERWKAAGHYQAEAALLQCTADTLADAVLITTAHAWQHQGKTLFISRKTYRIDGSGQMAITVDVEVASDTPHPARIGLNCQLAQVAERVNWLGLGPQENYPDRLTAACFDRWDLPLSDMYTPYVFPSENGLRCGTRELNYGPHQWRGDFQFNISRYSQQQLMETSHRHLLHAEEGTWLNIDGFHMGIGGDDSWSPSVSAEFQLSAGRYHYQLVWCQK
T1 sequence (P49327 whole entry, the tested form may be a part): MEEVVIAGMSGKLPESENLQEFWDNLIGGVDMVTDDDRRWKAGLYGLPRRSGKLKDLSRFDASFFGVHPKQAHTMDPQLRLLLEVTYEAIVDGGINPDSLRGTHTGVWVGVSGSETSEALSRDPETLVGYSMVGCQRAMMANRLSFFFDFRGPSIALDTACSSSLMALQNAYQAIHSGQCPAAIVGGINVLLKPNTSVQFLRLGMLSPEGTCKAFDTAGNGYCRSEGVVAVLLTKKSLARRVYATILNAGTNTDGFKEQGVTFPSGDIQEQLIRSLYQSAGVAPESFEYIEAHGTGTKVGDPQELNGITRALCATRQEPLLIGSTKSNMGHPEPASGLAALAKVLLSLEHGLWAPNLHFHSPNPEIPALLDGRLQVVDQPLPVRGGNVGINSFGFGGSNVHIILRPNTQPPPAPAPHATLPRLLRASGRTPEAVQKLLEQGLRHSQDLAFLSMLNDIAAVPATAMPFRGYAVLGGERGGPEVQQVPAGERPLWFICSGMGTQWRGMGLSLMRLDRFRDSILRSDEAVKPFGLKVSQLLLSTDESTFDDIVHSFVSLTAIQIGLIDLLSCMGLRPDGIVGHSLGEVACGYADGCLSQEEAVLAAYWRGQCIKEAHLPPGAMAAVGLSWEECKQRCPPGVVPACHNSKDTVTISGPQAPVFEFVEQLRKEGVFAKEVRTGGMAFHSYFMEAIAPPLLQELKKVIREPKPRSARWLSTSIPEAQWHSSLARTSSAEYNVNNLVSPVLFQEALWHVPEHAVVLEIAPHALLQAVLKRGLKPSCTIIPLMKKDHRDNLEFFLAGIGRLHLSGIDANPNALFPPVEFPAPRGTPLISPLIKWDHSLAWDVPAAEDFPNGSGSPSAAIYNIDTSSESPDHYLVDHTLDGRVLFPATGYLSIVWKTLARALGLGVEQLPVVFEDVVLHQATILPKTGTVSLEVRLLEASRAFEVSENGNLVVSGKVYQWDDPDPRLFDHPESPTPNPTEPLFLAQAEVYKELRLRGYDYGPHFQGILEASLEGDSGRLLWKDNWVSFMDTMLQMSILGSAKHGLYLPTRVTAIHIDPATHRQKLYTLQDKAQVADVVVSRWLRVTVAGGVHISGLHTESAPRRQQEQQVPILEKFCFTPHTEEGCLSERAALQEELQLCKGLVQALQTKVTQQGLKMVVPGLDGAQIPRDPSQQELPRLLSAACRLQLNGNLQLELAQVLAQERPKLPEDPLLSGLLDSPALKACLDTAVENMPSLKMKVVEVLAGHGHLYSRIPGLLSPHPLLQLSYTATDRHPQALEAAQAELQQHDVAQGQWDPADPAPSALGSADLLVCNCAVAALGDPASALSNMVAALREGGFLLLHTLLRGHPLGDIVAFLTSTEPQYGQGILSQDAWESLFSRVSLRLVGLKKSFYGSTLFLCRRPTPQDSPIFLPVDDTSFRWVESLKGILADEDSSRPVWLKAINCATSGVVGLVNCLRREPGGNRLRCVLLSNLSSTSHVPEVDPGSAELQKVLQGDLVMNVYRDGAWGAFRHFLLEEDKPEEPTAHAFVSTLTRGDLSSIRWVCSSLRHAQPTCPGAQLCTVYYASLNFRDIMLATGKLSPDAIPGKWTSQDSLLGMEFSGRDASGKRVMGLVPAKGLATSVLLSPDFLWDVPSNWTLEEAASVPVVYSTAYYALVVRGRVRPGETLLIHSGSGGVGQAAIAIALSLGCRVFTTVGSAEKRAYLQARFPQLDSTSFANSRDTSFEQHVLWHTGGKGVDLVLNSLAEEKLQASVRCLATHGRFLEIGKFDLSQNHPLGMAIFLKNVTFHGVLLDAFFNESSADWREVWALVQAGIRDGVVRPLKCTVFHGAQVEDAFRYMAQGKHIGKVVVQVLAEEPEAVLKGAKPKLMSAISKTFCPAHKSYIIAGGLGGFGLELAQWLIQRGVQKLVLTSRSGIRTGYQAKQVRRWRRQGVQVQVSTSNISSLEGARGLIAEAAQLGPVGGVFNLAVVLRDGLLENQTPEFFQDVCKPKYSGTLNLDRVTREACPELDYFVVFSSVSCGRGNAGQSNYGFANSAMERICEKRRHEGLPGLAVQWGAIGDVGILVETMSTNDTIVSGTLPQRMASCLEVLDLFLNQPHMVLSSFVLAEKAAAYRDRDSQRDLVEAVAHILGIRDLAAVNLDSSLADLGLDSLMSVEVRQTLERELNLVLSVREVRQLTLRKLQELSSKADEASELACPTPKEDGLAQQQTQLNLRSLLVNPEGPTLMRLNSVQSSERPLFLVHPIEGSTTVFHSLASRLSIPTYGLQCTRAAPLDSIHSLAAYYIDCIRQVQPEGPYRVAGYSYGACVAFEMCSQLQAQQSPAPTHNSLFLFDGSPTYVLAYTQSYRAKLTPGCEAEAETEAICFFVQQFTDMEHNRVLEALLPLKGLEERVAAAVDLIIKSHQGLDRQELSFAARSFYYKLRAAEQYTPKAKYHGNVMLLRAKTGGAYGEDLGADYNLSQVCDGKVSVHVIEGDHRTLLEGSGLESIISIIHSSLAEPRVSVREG

SMILES: C[C@@H]1CN([C@H](C)CO)S(=O)(=O)c2ccc(C#Cc3ccccc3F)cc2O[C@@H]1CN(C)C(=O)Cc1ccccc1
- IC50 (Fatty acid synthase [1]): 3.71 µM (active)
- IC50 (Fatty acid synthase [2]): 3.79 µM (active)
- IC50 (Beta-galactosidase): > 80 µM (inactive)

SMILES: Cc1ccc(C)c(-c2nnc(NC(=O)CS(=O)(=O)c3ccccc3)o2)c1
- EC50 [3]: > 112 µM (not active)
- EC50 [4]: > 112 µM (not active)

SMILES: CN(C)CCN(C(=O)c1ccc2ccccc2c1)c1nc2ccc(Br)cc2s1
- AC50 (CAAX prenyl protease 2): 4.77 µM (active)

SMILES: O=C(c1ccccc1)C1CCN(C(=O)c2ccc(Cl)cc2)CC1
- IC50 (Beta-galactosidase): > 80 µM (inactive)

SMILES: O=C(CCCN1C(=O)/C(=C/c2cccc(Br)c2)SC1=S)N1CCOCC1
- IC50 (Caspase-3): > 100 µM (inactive)
- IC50 [5]: 45.6 µM (active)
- IC50 [6]: 79.6 µM (active)
- IC50 [7]: 78.1 µM (active)

SMILES: CC(=O)Oc1ccc(/C=C/c2nc3ccccc3c(=O)o2)cc1
- EC50 [3]: 0.359 µM (active)
- EC50 [4]: 0.333 µM (active)

SMILES: Cc1ccc(CNS(=O)(=O)c2ccc3c(c2)CCN3C(=O)CCCC(=O)O)cc1
- AC50 [8]: > 52 µM (inactive)

SMILES: CN1/C(=C\C(=O)COC(=O)c2ccc([N+](=O)[O-])o2)C(C)(C)c2ccccc21
- EC50 [3]: > 112 µM (not active)
- EC50 [4]: > 112 µM (not active)
- IC50 (cells): 1.22 µM (active)

SMILES: CC(C)(C)CNC(=O)c1cccc2c1C(=O)c1ccc(N3CCCC3)cc1S2(=O)=O
- IC50 (Beta-galactosidase): > 80 µM (inactive)

SMILES: CCOc1ccc(/C=N/NC(=O)c2ccc(Cn3cc(Br)cn3)o2)cc1
- IC50 (Caspase-3): 35.4 µM (active)
- IC50 [5]: 13.2 µM (active)
- IC50 [6]: 52.7 µM (active)
- IC50 [7]: 56.5 µM (active)

SMILES: COc1ccc(NC(=O)c2sc(SCc3ccccc3)nc2N)cc1
- IC50 (Beta-galactosidase): > 80 µM (inactive)

SMILES: O=C(c1cnc2n(c1=O)CCS2)N1CCN(C(c2ccccc2)c2ccc(Cl)cc2)CC1 (stereo unspecified)
- AC50 (CAAX prenyl protease 2): 8.81 µM (active)

SMILES: O=C1/C(=C\c2ccc(O)cc2)SC(=S)N1Cc1ccccc1
- IC50 (Caspase-3): 41 µM (active)
- IC50 [5]: 16 µM (active)
- IC50 [6]: 8 µM (active)
- IC50 [7]: 9.59 µM (active)

SMILES: COc1cccc(NC(=O)Cn2c3ccc(F)cc3c3nc4n(c(=O)c32)CCCS4)c1
- IC50 (Beta-galactosidase): > 80 µM (inactive)

SMILES: COc1ccc(COc2ccc3c(C)cc(=O)oc3c2)cc1
- IC50 (Caspase-3): 20 µM (active)
- IC50 [5]: 9.04 µM (active)
- IC50 [6]: 21.6 µM (active)
- IC50 [7]: 32.3 µM (active)

SMILES: COc1cc(/C=C(\C#N)C(=O)Nc2ccc3ccccc3c2)c([N+](=O)[O-])cc1OC
- IC50 (Beta-galactosidase): > 80 µM (inactive)

SMILES: Cc1[nH]c2nc(SCC(=O)c3ccccc3)nc-2cc1Br
- EC50 [3]: > 112 µM (not active)
- EC50 [4]: > 112 µM (not active)

SMILES: O=C(/C=C/Nc1ccc(F)cc1Br)c1ccccc1
- EC50 [9]: < 0.16 µM (active)
- EC50 [3]: 0.283 µM (active)
- EC50 [4]: 3.37 µM (active)
- AC50 (HEK293): 1.38 µM (active)
- IC50 (Protein skinhead-1): > 100 µM (inactive)
